# Measurements as given in ChEMBL document CHEMBL1201862, “PubChem BioAssay data set” (2004).
# The source made the active and inactive calls.
# What was measured:
# Paired box protein Pax-8 = Paired box protein Pax-8 (Homo sapiens, UniProt Q06710); experiment: PAX8 transcriptional activity inhibition in RMG-I – RMG-I cells, luciferase, cherry-pick, dose response (AID 687027); format: functional, cell-based;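 note: luciferase reporter driven by Pax8 target thyroperoxidase promoter measured by SteadyGlo luminescence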
# [1] = microbe, parasite or virus in culture; format: functional; details: Mycobacterium tuberculosis
# H9c2 = experiment: cells; format: functional, cell-based; details: Rattus norvegicus, H9c2, Myocardium;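 note: confirmatory concentration-response retest of ultra-high-throughput screening hits for modulation of myocardial damage; cell death induced by hydrogen peroxide oxidative stress; compound pretreatment for 60 min then peroxide exposure for 2 h; potency is for protecting the cells against peroxide damage rather than for killing them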
# [2] = viability of uninfected HEp-2 cells – cell-based, HTS, cytotoxicity control for RSV inhibitor project, dose response (AID 2410); format: functional; details: human respiratory syncytial virus
# [3] = Luminescence Cell-Based Dose Retest to Confirm Inhibitors of Cancer Stem Cells. [Related pubchem assays (depositor defined):AID2717, AID2721]; format: functional; details: Homo sapiens
# [4] = target: Glyceraldehyde-3-phosphate dehydrogenase (Homo sapiens, UniProt P04406)
# Fatty acid synthase [5] = target: T1, Fatty acid synthase (Homo sapiens, UniProt P49327); experiment: inhibition of human FAS-TE enzyme activity – biochemical, kinetic fluorescence intensity, dose response (AID 624326); format: functional;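 note: rate of fluorescence rise from hydrolysis of a fluorogenic O-methyl fluorescein ester substrate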
# Fatty acid synthase [6] = target: T1, Fatty acid synthase; experiment: inhibition of human FAS-TE enzyme activity – biochemical, endpoint fluorescence intensity, uHTS hits, dose response (AID 624327); format: functional;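 note: fluorescence from hydrolysis of an O-methyl fluorescein acyl ester substrate by the enzyme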
# [7] = target: Induced myeloid leukemia cell differentiation protein Mcl-1 (Homo sapiens, UniProt Q07820); format: functional
# [8] = THP-1 cell cytotoxicity, dose response, cytotoxicity control for non-replicating M. tuberculosis project (AID 489025); format: functional
# [9] = reduction of Shn3 3'UTR-driven luciferase in osteoblasts – cell-based, Clone20 osteoblasts, firefly luciferase, cherry-picked, dose response (AID 624132); format: functional;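 note: firefly luciferase luminescence from reporter carrying the Shn3 3'UTR in osteoblasts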
# [10] = non-specific 3'UTR reporter inhibition in Clone20-Shn3RL – cell-based, Renilla luciferase, cherry-picked, counter-screen for Shn3 inhibitor project, dose response (AID 624133); format: functional
# [11] = loss of viability in HepG2 cells – cell-based, CellTiter-Glo, cherry-picked, cytotoxicity control for Shn3 inhibitor project, dose response (AID 624134); format: functional
# [12] = target: T2, High affinity choline transporter 1 (Homo sapiens, UniProt Q9GZV3); experiment: human choline transporter blockers, potency – cell-based, 5-point CRC, membrane potential dye, dose response (AID 504840); format: functional
# T2 sequence (Q9GZV3 whole entry): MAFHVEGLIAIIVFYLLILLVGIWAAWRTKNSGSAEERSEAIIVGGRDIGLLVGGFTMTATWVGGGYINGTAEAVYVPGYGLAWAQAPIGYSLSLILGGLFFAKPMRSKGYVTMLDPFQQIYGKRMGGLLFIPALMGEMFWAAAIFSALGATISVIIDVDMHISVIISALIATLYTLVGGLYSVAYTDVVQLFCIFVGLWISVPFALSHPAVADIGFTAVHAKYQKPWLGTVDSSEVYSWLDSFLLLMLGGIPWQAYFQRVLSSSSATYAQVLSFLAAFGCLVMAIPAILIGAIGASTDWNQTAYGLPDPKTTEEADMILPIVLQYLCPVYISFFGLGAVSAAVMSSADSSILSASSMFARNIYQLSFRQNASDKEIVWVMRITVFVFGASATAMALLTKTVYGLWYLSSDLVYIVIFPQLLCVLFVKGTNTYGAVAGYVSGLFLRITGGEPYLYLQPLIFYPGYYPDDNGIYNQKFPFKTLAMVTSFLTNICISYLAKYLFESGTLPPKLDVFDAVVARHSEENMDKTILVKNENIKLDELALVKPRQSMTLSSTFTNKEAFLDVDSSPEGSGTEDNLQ
# P388/ADR = experiment: cells; format: functional; details: Mus musculus
# SN12K1 = experiment: cells; format: functional; details: Homo sapiens
# P388 = experiment: cells; format: functional; details: Mus musculus
# [13] = viability of HCT116 lacking mutant beta-catenin – cell-based, human colon tumor, dose response (AID 1045); format: functional;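 note: HCT116 colon tumor cells with beta catenin knocked out; cells exposed to compound for 60 hours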
# [14] = viability of PTEN-deleted HCT116 cells – cell-based, HCT116 PTEN knockout, dose response (AID 1047); format: functional;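 note: HCT116 colon tumor cells with PTEN knocked out; cells exposed to compound for 60 hours before readout; potency for loss of cell viability measured by luminescence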
# [15] = Trypanosoma cruzi growth suppression in host cells – NIH3T3 host cells, beta-gal luminescence, confirmation (AID 2044); format: functional, cell-based;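 note: intracellular parasites grown in NIH/3T3 mouse fibroblasts as host cells; luminescent beta-galactosidase reporter signal from transgenic T. cruzi replicating inside host cells; inhibitors lower the luminescence signal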
# [16] = NIH3T3 cell viability loss – ATP luminescence, mouse fibroblasts, counter-screen, dose response (AID 2010); format: functional, cell-based;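 note: cells exposed to compound for about 90 hours before reading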
# [17] = fluconazole-exposed Candida albicans growth modulators – fluorescence, retest, confirmation (AID 2467); format: functional, cell-based
# [18] = NIH-3T3 fibroblast cytotoxicity, dose response, cytotoxicity control, cell-based, fluorescence, Alamar Blue, secondary assay (AID 2327); format: functional;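 note: NIH-3T3 mouse fibroblasts cultured with fluconazole at 8 µg/mL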
# [19] = target: T3, Polyadenylate-binding protein 1 (Homo sapiens, UniProt P11940); experiment: MLLE binding blockers, Cy5 peptide tracer – biochemical, fluorescence polarization, Cy5-PAM2 peptide, secondary, miRNA deadenylation inhibitor project, dose response (AID 602260); format: functional; details: read-out: IC50_Mean
# [20] = target: T3, Polyadenylate-binding protein 1; experiment: MLLE domain peptide-binding blockers, IC50 – biochemical, fluorescence polarization, FITC-PAM2 peptide, dose response (AID 602259); format: functional; details: read-out: IC50_Mean
# Glyceraldehyde-3-phosphate dehydrogenase, sequence (P04406 whole entry): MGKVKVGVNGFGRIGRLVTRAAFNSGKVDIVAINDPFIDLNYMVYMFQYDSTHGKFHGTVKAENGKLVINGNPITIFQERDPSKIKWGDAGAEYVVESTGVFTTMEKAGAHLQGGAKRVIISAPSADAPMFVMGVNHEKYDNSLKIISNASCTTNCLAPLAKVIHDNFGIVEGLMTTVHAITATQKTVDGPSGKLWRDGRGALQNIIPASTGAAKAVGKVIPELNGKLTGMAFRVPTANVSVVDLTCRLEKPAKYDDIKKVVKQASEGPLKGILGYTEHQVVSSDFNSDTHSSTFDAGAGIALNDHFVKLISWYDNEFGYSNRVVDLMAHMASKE
# Induced myeloid leukemia cell differentiation protein Mcl-1, sequence (Q07820 whole entry): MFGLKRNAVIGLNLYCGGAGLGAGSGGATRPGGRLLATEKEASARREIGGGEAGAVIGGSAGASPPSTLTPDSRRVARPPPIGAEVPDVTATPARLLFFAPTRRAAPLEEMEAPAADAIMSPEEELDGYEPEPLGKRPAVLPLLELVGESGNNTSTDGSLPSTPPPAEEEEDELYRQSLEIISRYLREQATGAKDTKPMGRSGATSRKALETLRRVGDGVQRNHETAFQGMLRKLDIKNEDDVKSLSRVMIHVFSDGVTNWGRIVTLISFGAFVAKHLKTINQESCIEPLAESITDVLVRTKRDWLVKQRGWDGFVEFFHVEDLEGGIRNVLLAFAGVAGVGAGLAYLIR
# T1 sequence (P49327 whole entry): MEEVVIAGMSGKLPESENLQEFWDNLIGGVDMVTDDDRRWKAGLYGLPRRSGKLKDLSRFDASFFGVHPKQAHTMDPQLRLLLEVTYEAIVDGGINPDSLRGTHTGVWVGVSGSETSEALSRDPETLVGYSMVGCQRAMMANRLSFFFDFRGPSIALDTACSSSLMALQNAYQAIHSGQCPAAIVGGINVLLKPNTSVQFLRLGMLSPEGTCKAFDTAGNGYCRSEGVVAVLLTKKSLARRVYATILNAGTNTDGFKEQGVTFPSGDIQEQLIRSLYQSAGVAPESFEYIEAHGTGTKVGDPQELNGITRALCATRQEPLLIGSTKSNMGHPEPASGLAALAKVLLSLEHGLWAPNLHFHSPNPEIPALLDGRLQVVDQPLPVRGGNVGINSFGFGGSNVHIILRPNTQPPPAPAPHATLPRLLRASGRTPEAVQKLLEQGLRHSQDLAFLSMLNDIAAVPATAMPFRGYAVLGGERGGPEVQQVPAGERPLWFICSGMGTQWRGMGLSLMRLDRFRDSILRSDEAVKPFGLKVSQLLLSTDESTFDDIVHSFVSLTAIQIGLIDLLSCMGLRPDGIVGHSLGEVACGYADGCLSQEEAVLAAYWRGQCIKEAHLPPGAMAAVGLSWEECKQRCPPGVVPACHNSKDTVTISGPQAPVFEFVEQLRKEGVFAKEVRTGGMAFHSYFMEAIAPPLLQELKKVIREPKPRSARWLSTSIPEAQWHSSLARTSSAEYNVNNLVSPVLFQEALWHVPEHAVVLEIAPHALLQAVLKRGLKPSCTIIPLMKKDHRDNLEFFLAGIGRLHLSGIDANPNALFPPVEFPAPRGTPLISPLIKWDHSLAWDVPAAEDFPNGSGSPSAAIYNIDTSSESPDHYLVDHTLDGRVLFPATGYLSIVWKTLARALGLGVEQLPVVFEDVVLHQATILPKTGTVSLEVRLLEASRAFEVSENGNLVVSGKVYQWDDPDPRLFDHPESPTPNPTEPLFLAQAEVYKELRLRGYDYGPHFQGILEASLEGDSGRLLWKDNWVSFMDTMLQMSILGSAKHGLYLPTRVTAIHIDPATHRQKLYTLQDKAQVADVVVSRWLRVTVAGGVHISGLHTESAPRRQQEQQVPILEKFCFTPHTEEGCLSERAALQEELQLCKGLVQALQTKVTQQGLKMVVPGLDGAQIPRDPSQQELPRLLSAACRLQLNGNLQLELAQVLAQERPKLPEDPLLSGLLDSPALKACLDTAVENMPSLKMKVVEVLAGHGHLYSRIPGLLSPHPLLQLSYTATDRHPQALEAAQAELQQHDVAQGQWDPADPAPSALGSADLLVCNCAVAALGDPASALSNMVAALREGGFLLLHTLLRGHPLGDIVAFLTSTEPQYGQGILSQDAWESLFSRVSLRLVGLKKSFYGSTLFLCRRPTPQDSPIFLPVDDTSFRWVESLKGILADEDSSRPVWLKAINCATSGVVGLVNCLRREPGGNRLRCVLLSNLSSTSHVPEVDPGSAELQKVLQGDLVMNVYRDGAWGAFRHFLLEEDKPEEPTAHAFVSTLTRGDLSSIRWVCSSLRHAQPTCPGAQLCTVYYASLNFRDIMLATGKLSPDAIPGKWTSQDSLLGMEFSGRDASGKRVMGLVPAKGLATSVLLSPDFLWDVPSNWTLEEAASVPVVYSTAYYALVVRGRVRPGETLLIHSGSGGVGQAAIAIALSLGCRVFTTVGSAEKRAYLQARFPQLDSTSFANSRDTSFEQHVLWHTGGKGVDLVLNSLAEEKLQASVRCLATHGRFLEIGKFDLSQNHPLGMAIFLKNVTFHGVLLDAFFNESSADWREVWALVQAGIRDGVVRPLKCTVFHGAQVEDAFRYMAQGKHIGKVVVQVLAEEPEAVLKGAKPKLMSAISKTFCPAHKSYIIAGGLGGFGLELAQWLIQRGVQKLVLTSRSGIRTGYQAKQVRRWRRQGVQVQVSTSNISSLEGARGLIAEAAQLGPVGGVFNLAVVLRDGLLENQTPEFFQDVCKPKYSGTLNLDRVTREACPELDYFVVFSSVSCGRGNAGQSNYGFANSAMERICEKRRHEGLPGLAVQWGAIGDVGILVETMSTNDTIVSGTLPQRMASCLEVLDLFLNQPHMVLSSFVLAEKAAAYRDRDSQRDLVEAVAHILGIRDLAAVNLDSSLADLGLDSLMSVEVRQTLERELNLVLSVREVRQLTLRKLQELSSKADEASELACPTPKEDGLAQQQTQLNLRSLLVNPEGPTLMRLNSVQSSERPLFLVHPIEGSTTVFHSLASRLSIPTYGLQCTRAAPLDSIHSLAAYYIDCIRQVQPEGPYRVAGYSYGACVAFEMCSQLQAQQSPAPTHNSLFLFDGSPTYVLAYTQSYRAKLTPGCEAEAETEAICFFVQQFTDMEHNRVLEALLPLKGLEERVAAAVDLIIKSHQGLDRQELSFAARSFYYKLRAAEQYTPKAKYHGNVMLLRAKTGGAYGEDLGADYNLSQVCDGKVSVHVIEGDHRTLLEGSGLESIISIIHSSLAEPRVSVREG
# Paired box protein Pax-8, sequence (Q06710 whole entry): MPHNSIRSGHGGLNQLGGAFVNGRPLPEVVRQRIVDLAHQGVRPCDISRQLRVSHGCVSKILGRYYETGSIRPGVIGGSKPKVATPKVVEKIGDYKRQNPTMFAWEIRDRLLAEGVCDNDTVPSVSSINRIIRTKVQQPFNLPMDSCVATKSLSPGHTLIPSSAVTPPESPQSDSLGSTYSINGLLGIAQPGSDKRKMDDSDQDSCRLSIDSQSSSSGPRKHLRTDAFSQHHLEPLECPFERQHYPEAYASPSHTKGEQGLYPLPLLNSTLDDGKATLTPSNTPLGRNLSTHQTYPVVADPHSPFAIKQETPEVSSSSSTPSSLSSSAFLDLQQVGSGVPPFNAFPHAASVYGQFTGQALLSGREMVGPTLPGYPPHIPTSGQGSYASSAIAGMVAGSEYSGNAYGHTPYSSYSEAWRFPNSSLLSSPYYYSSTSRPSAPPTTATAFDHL
# T3 sequence (P11940 whole entry, the tested form may be a part): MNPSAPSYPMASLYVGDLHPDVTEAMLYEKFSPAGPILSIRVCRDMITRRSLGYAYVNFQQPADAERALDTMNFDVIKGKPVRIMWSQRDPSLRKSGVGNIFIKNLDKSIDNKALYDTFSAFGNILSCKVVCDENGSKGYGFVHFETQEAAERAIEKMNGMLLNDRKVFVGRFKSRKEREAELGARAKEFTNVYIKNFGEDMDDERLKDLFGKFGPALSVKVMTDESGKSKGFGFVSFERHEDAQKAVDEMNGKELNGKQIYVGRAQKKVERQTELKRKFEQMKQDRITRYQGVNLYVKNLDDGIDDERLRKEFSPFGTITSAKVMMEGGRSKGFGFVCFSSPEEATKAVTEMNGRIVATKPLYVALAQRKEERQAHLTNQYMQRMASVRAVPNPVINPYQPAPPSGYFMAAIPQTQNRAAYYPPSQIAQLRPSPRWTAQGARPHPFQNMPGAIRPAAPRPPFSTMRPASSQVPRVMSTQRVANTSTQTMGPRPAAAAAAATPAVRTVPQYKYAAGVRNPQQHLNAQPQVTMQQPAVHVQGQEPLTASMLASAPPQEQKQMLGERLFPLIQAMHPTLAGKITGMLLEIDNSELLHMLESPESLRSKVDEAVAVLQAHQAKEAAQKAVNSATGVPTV
smiles,measurement,setting,value
CCO[C@H]1OC(C(=O)N2CCN(Cc3ccccc3)CC2)=C[C@@H](c2ccc(C(F)(F)F)cc2)[C@@H]1CCCO,AC50,Paired box protein Pax-8,14.3 µM (active)
Cn1nc(-c2ccccc2F)c2cc(C(=O)Nc3ccc4c(c3)OCCO4)sc21,CC50,[1],> 40 µM (active)
same,IC50,H9c2,> 79 µM (inactive)
same,CC50,[2],26.9 µM (active)
same,AC50,[3],3.48 µM (active)
CCCC#Cc1ccc([C@@H]2[C@H]3CN(S(=O)(=O)c4ccccc4F)CCCCN3[C@H]2CO)cc1,AC50,Paired box protein Pax-8,22.4 µM (active)
Cc1ccc(N2C(=O)C(Cl)=C(N3CCOCC3)C2=O)cc1,IC50,[4],> 50 µM (inconclusive)
COC(=O)c1ccc(C2c3c(oc4ccc(Cl)cc4c3=O)C(=O)N2CCN2CCOCC2)cc1 (centres undefined),IC50,Fatty acid synthase [5],11.6 µM (active)
same,IC50,Fatty acid synthase [6],14.6 µM (active)
N#C/C(=C\c1ccc(C(=O)O)cc1)c1nc(O)c2c3c(sc2n1)CCCC3,IC50,[7],3.52 µM (active)
Clc1ccc(CN2C3=NCCCN3c3ccccc32)cc1,CC50,[8],> 40 µM (active)
COc1ccccc1Cc1c(-c2ccco2)nc2c(C)cc(Br)cn12,AC50,[9],1.9 µM (active)
same,AC50,[10],5.7 µM (active)
same,AC50,[11],45.6 µM (active)
CCOC(=O)c1cnc2c(C)cc(Cl)cc2c1N1CCN(C)CC1,IC50,[12],11.5 µM (active)
CC(C)(C)C(=O)/C(=C\c1cccc([N+](=O)[O-])c1)n1cncn1,CC50,[1],4.33 µM (active)
COc1cccc(-c2ccc3c(c2)[C@@H]2[C@@H](CCN2C(=O)NC2CCCCC2)[C@H](CO)N3C)c1,AC50,Paired box protein Pax-8,10.9 µM (active)
O=[N+]([O-])c1cccc(S(=O)(=O)NCc2ccncc2)c1,AC50,[9],3.09 µM (active)
same,AC50,[11],48.4 µM (active)
O=P(NCCCO)(OCc1ccccc1)N(CCCl)CCCl (centres undefined),GI50,P388/ADR,> 100 µM (inactive)
same,GI50,SN12K1,> 100 µM (inactive)
same,GI50,P388,> 100 µM (inactive)
O=C(C[C@@H]1C[C@H]2c3cc(NC(=O)C4CCOCC4)ccc3O[C@H]2[C@H](CO)O1)NCc1ccc(Oc2ccccc2)cc1,AC50,Paired box protein Pax-8,34.3 µM (active)
O=C(c1ccc(Cl)c(S(=O)(=O)N2CCCC2)c1)N1CCN(c2ccccc2)CC1,IC50,[12],6.61 µM (active)
CC(C)(C)OC(=O)NCCc1onc(-c2cccc([N+](=O)[O-])c2)c1C(=O)O,IC50,Fatty acid synthase [5],1.16 µM (active)
same,IC50,Fatty acid synthase [6],1.47 µM (active)
CCOc1cc(/C=C2/S/C(=N/c3ccccc3)N(Cc3cccnc3)C2=O)ccc1OCC#N,EC50,[13],32.5 µM (active)
same,EC50,[14],26.9 µM (active)
N=C(N)SCc1cccc([N+](=O)[O-])c1,GI50,P388/ADR,15.7 µM (inactive)
same,GI50,SN12K1,32.7 µM (inactive)
same,GI50,P388,15.5 µM (inactive)
CN1CCC23c4ccccc4NC1C21CCN(C)C3Nc2ccccc21,GI50,P388/ADR,> 254 µM (inactive)
same,GI50,SN12K1,202 µM (inactive)
same,GI50,P388,57.7 µM (inactive)
O=C(NN1C(=O)C2C(c3ccccc3)C=CC(c3ccccc3)C2C1=O)c1cccc(Br)c1 (centres undefined),IC50,Fatty acid synthase [5],9.22 µM (active)
same,IC50,Fatty acid synthase [6],12.1 µM (active)
CN(C)C1=C(Cl)C(=O)N(c2ccnc(Cl)c2)C1=O,IC50,[4],> 50 µM (inconclusive)
COCCCNCCOCCOc1ccc(Cl)cc1C(C)(C)C,EC50,[13],14.3 µM (active)
same,EC50,[14],14.9 µM (active)
CCCn1c(CN2CCN(c3cccc(Cl)c3)CC2)nc2c1c(=O)n(C)c(=O)n2C,IC50,[12],14.2 µM (active)
same,EC50,[13],33.1 µM (active)
same,EC50,[14],39.9 µM (active)
Fc1cccc(Cc2noc(CN3CCC(c4ccncc4)CC3)n2)c1,IC50,[12],14.5 µM (active)
same,EC50,[15],2.11 µM (active)
same,EC50,[16],> 60 µM (not active)
CC(C)n1c(O)c(N=NC(=O)Cc2csc(N3CCOCC3)n2)c2ccccc21,IC50,[12],13.5 µM (active)
Cc1cc(C)cc(NC(=O)c2ccc(Cn3nc(C)c(Cl)c3C)o2)c1,CC50,[1],> 40 µM (active)
same,CC50,[2],23.5 µM (active)
Cc1cc(NS(=O)(=O)c2ccc(NC(=O)C(F)(F)F)cc2)no1,IC50,[4],> 100 µM (not active)
CC(=O)Oc1cc2c(cc1OC(C)=O)OCC(c1ccc(C)cc1)C2 (centres undefined),GI50,P388/ADR,3.05 µM (inactive)
same,GI50,SN12K1,14 µM (inactive)
same,GI50,P388,2.87 µM (inactive)
COc1ccc(NC(=O)c2ccccc2N(Cc2ccccc2)S(C)(=O)=O)cc1,IC50,[7],40.6 µM (not active)
O=C(C1=C[C@@H](c2ccc(C(F)(F)F)cc2)C[C@@H](OCc2ccc(CO)cc2)O1)N1CCN(Cc2ccccc2)CC1,IC50,[7],1.48 µM (not active)
COc1cc(CNCCc2ccc(S(N)(=O)=O)cc2)ccc1OCc1ccc(Cl)cc1,EC50,[15],0.43 µM (active)
same,EC50,[13],7.47 µM (active)
same,EC50,[16],> 60 µM (not active)
same,EC50,[14],9.48 µM (active)
Cc1nc2ccccc2c2nc3ccccc3n12,CC50,[1],> 40 µM (active)
NC(CSC(c1ccccc1)(c1ccccc1)c1ccccc1)C(=O)O (centres undefined),GI50,P388/ADR,5.43 µM (inactive)
same,GI50,SN12K1,0.352 µM (active)
same,GI50,P388,0.494 µM (active)
CCOc1nc(SCCOc2ccc(C)cc2)nc(N(C)C)n1,EC50,[13],56.2 µM (active)
same,EC50,[14],45 µM (active)
CC(=C/c1ccccc1)/C=N/Nc1nc(N2CCCCC2)nc(N2CCCCC2)n1,EC50,[13],21.6 µM (active)
same,EC50,[14],24 µM (active)
Cc1cc(NC(=O)COC(=O)c2cc([N+](=O)[O-])ccc2N2CCOCC2)ccc1Br,IC50,Fatty acid synthase [5],4.33 µM (active)
same,IC50,Fatty acid synthase [6],2.82 µM (active)
c1cc2c3c(c1)c1cc4c(cc1c[n+]3CC2)OCO4 [ANHYDROLYCORINIUM CHLORIDE],GI50,P388/ADR,22 µM (inactive)
same,GI50,SN12K1,1.95 µM (inactive)
same,GI50,P388,0.515 µM (active)
NS(=O)(=O)OCCCCCCCOS(N)(=O)=O,GI50,P388/ADR,> 83 µM (inactive)
same,GI50,SN12K1,273 µM (inactive)
same,GI50,P388,35.1 µM (inactive)
Cc1nn(-c2ccccc2)c(N)c1N=Nc1ccc(Cl)cc1,EC50,[17],5.82 µM (active)
same,CC50,[1],> 40 µM (active)
same,EC50,[18],22.8 µM (inconclusive)
COc1cccc(N2C(=O)C(Cl)=C(N3CCN(CCO)CC3)C2=O)c1,IC50,[4],> 50 µM (inconclusive)
Cc1ccc(-c2csc3nc(C(C)C)oc(=O)c23)c(C)c1,IC50,Fatty acid synthase [5],0.761 µM (active)
same,IC50,Fatty acid synthase [6],1.32 µM (active)
CN(C)CCN1C(=O)c2cccc3cc([N+](=O)[O-])cc(c23)C1=O [MITONAFIDE],IC50,[19],> 66 µM (inactive)
same,AC50,[9],1.11 µM (active)
same,IC50,[20],43.4 µM (inactive)
same,AC50,[11],2.2 µM (active)
